{"source": "patent USRE48461E1", "about": "“Modulation of androgen receptor expression” (Ionis Pharmaceuticals, Inc., priority 2012, dated 2021)", "key": {"AR mRNA [1]": {"system": "AR mRNA", "test": "AR mRNA levels in LMR20 cells (with/without DHT or R1881)", "type": "cell-based, human", "settings": "LMR20 cells; for AR mRNA levels (% baseline value) after treatment with DHT: DHT 10 nM 72 hrs; for AR mRNA levels (% baseline value) after treatment with R1881: R1881 10 nM 72 hrs; for AR mRNA levels (% baseline value) of cells without AR agonist treatment: no AR agonist", "description": "(§1) LMR20 cells were plated at 1,500 cells per well in phenol red-free medium with CSS."}, "[2]": {"system": "prostate-specific antigen (PSA) mRNA", "test": "PSA mRNA levels in LMR20 cells", "type": "cell-based, human", "settings": "LMR20 cells; for PSA mRNA levels (% baseline value) after treatment with DHT: DHT 10 nM 72 hrs; for PSA mRNA levels (% baseline value) after treatment with R1881: R1881 10 nM 72 hrs; for PSA mRNA levels (% baseline value) of cells without AR agonist treatment: no AR agonist", "description": "LMR20 cells were plated at 1,500 cells per well in phenol red-free medium with CSS. […] Results are presented in Tables 43-45 as mRNA levels expressed as a percentage of the baseline values. mRNA levels may be lowered or increased after treatment."}, "TMPRSS2 mRNA": {"system": "TMPRSS2 mRNA", "test": "TMPRSS2 mRNA levels in LMR20 cells", "type": "cell-based, human", "settings": "LMR20 cells; for TMPRSS2 mRNA levels (% baseline value) after treatment with DHT: DHT 10 nM 72 hrs; for TMPRSS2 mRNA levels (% baseline value) after treatment with R1881: R1881 10 nM 72 hrs; for TMPRSS2 mRNA levels (% baseline value) of cells without AR agonist treatment: no AR agonist", "description": "as §1"}, "AR mRNA [3]": {"system": "AR mRNA", "test": "Dose-dependent antisense inhibition of human AR in HuVEC cells (electroporation, qRT-PCR RTS3559, IC50)", "type": "cell-based", "settings": "HuVEC, ~16 h", "outline": "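HuVEC cells dosed with antisense oligonucleotides by electroporation and treated approximately 16 hours. AR mRNA quantified by real-time qPCR with primer probe set RTS3559 and normalised to total RNA by RIBOGREEN; IC50 from dose-response.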"}, "AR mRNA [4]": {"system": "AR mRNA", "test": "Antisense inhibition of human AR in HuVEC cells, single concentration (electroporation, qRT-PCR RTS3559)", "type": "cell-based", "settings": "250 nM ASO, ~24 h, Table 7", "outline": "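AR mRNA levels were measured with human primer-probe set RTS3559 and adjusted for total RNA (RIBOGREEN). Cells were HuVEC, with each antisense oligonucleotide delivered by electroporation at one concentration.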"}, "AR mRNA [5]": {"system": "AR mRNA", "test": "AR mRNA in LnCaP cells by free uptake (hAR_LTS00943)", "type": "cell-based, human", "settings": "24 hrs", "description": "Cells were plated at a concentration of 4,000 cells/well in 96-well plates. ISIS oligonucleotides, specified in Table 68, were added individually at 0.02 μM, 0.10 μM, 0.50 μM, 2.50 μM, or 10.00 μM. After an incubation period of 24 hrs, mRNA levels were measured using primer probe set hAR_LTS00943."}}, "note": "Oligonucleotides are written 5' to 3', each unit as a sugar letter and its base; * is a phosphorothioate linkage, no mark a phosphodiester; rarer units and linkages stand in square brackets, end groups in braces. Plain capitals give the bases only. e = 2'-O-(2-methoxyethyl) (MOE); k = constrained ethyl (cEt); [5mC] = 5-methylcytosine; d = 2'-deoxy (DNA)"}
{"substance": "569236 (antisense eT*kG*kA*kT*dT*dT*dA*dA*dT*dG*dG*kT*kT*kG*e[5mC]*eA) [compound 569236]", "values": [{"measurement": "AR mRNA levels (% baseline value) after treatment with DHT", "setting": "AR mRNA [1]; ASO 0.04 μM", "result": 94, "unit": "% baseline value"}, {"measurement": "AR mRNA levels (% baseline value) after treatment with DHT", "setting": "AR mRNA [1]; ASO 0.20 μM", "result": 77, "unit": "% baseline value"}, {"measurement": "AR mRNA levels (% baseline value) after treatment with DHT", "setting": "AR mRNA [1]; ASO 1.0 μM", "result": 44, "unit": "% baseline value"}, {"measurement": "AR mRNA levels (% baseline value) after treatment with DHT", "setting": "AR mRNA [1]; ASO 5.0 μM", "result": 34, "unit": "% baseline value"}, {"measurement": "AR mRNA levels (% baseline value) after treatment with R1881", "setting": "AR mRNA [1]; ASO 0.04 μM", "result": 89, "unit": "% baseline value"}, {"measurement": "AR mRNA levels (% baseline value) after treatment with R1881", "setting": "AR mRNA [1]; ASO 0.20 μM", "result": 80, "unit": "% baseline value"}, {"measurement": "AR mRNA levels (% baseline value) after treatment with R1881", "setting": "AR mRNA [1]; ASO 1.0 μM", "result": 44, "unit": "% baseline value"}, {"measurement": "AR mRNA levels (% baseline value) after treatment with R1881", "setting": "AR mRNA [1]; ASO 5.0 μM", "result": 37, "unit": "% baseline value"}, {"measurement": "AR mRNA levels (% baseline value) of cells without AR agonist treatment", "setting": "AR mRNA [1]; ASO 0.04 μM", "result": 104, "unit": "% baseline value"}, {"measurement": "AR mRNA levels (% baseline value) of cells without AR agonist treatment", "setting": "AR mRNA [1]; ASO 0.20 μM", "result": 87, "unit": "% baseline value"}, {"measurement": "AR mRNA levels (% baseline value) of cells without AR agonist treatment", "setting": "AR mRNA [1]; ASO 1.0 μM", "result": 42, "unit": "% baseline value"}, {"measurement": "AR mRNA levels (% baseline value) of cells without AR agonist treatment", "setting": "AR mRNA [1]; ASO 5.0 μM", "result": 27, "unit": "% baseline value"}, {"measurement": "PSA mRNA levels (% baseline value) after treatment with DHT", "setting": "[2]; ASO 0.04 μM", "result": 108, "unit": "% baseline value"}, {"measurement": "PSA mRNA levels (% baseline value) after treatment with DHT", "setting": "[2]; ASO 0.20 μM", "result": 79, "unit": "% baseline value"}, {"measurement": "PSA mRNA levels (% baseline value) after treatment with DHT", "setting": "[2]; ASO 1.0 μM", "result": 46, "unit": "% baseline value"}, {"measurement": "PSA mRNA levels (% baseline value) after treatment with DHT", "setting": "[2]; ASO 5.0 μM", "result": 46, "unit": "% baseline value"}, {"measurement": "PSA mRNA levels (% baseline value) after treatment with R1881", "setting": "[2]; ASO 0.04 μM", "result": 90, "unit": "% baseline value"}, {"measurement": "PSA mRNA levels (% baseline value) after treatment with R1881", "setting": "[2]; ASO 0.20 μM", "result": 90, "unit": "% baseline value"}, {"measurement": "PSA mRNA levels (% baseline value) after treatment with R1881", "setting": "[2]; ASO 1.0 μM", "result": 57, "unit": "% baseline value"}, {"measurement": "PSA mRNA levels (% baseline value) after treatment with R1881", "setting": "[2]; ASO 5.0 μM", "result": 41, "unit": "% baseline value"}, {"measurement": "PSA mRNA levels (% baseline value) of cells without AR agonist treatment", "setting": "[2]; ASO 0.04 μM", "result": 122, "unit": "% baseline value"}, {"measurement": "PSA mRNA levels (% baseline value) of cells without AR agonist treatment", "setting": "[2]; ASO 0.20 μM", "result": 90, "unit": "% baseline value"}, {"measurement": "PSA mRNA levels (% baseline value) of cells without AR agonist treatment", "setting": "[2]; ASO 1.0 μM", "result": 78, "unit": "% baseline value"}, {"measurement": "PSA mRNA levels (% baseline value) of cells without AR agonist treatment", "setting": "[2]; ASO 5.0 μM", "result": 73, "unit": "% baseline value"}, {"measurement": "TMPRSS2 mRNA levels (% baseline value) after treatment with DHT", "setting": "TMPRSS2 mRNA; ASO 0.04 μM", "result": 113, "unit": "% baseline value"}, {"measurement": "TMPRSS2 mRNA levels (% baseline value) after treatment with DHT", "setting": "TMPRSS2 mRNA; ASO 0.20 μM", "result": 123, "unit": "% baseline value"}, {"measurement": "TMPRSS2 mRNA levels (% baseline value) after treatment with DHT", "setting": "TMPRSS2 mRNA; ASO 1.0 μM", "result": 111, "unit": "% baseline value"}, {"measurement": "TMPRSS2 mRNA levels (% baseline value) after treatment with DHT", "setting": "TMPRSS2 mRNA; ASO 5.0 μM", "result": 110, "unit": "% baseline value"}, {"measurement": "TMPRSS2 mRNA levels (% baseline value) after treatment with R1881", "setting": "TMPRSS2 mRNA; ASO 0.04 μM", "result": 126, "unit": "% baseline value"}, {"measurement": "TMPRSS2 mRNA levels (% baseline value) after treatment with R1881", "setting": "TMPRSS2 mRNA; ASO 0.20 μM", "result": 131, "unit": "% baseline value"}, {"measurement": "TMPRSS2 mRNA levels (% baseline value) after treatment with R1881", "setting": "TMPRSS2 mRNA; ASO 1.0 μM", "result": 98, "unit": "% baseline value"}, {"measurement": "TMPRSS2 mRNA levels (% baseline value) after treatment with R1881", "setting": "TMPRSS2 mRNA; ASO 5.0 μM", "result": 95, "unit": "% baseline value"}, {"measurement": "TMPRSS2 mRNA levels (% baseline value) of cells without AR agonist treatment", "setting": "TMPRSS2 mRNA; ASO 0.04 μM", "result": 96, "unit": "% baseline value"}, {"measurement": "TMPRSS2 mRNA levels (% baseline value) of cells without AR agonist treatment", "setting": "TMPRSS2 mRNA; ASO 0.20 μM", "result": 81, "unit": "% baseline value"}, {"measurement": "TMPRSS2 mRNA levels (% baseline value) of cells without AR agonist treatment", "setting": "TMPRSS2 mRNA; ASO 1.0 μM", "result": 59, "unit": "% baseline value"}, {"measurement": "TMPRSS2 mRNA levels (% baseline value) of cells without AR agonist treatment", "setting": "TMPRSS2 mRNA; ASO 5.0 μM", "result": 48, "unit": "% baseline value"}, {"measurement": "percent inhibition of AR", "setting": "AR mRNA [3]; 31.25 nM, Table 8", "result": 17, "unit": "%"}, {"measurement": "percent inhibition of AR", "setting": "AR mRNA [3]; 62.5 nM, Table 8", "result": 39, "unit": "%"}, {"measurement": "percent inhibition of AR", "setting": "AR mRNA [3]; 62.5 nM, Table 10", "result": 4, "unit": "%"}, {"measurement": "percent inhibition of AR", "setting": "AR mRNA [3]; 125.0 nM, Table 8", "result": 54, "unit": "%"}, {"measurement": "percent inhibition of AR", "setting": "AR mRNA [3]; 125.0 nM, Table 10", "result": 35, "unit": "%"}, {"measurement": "percent inhibition of AR", "setting": "AR mRNA [3]; 500.0 nM, Table 8", "result": 84, "unit": "%"}, {"measurement": "percent inhibition of AR", "setting": "AR mRNA [3]; 500.0 nM, Table 10", "result": 68, "unit": "%"}, {"measurement": "percent inhibition of AR", "setting": "AR mRNA [3]; 1000.0 nM, Table 8", "result": 92, "unit": "%"}, {"measurement": "percent inhibition of AR", "setting": "AR mRNA [3]; 1000.0 nM, Table 10", "result": 88, "unit": "%"}, {"measurement": "IC50", "setting": "AR mRNA [3]; Table 8", "result": 110, "unit": "nM"}, {"measurement": "IC50", "setting": "AR mRNA [3]; Table 10", "result": 252, "unit": "nM"}, {"measurement": "% inhibition", "setting": "AR mRNA [4]", "result": 66, "unit": "%"}, {"measurement": "Percent inhibition of AR mRNA", "setting": "AR mRNA [5]; 0.02 μM", "result": 3, "unit": "%"}, {"measurement": "Percent inhibition of AR mRNA", "setting": "AR mRNA [5]; 0.1 μM", "result": 2, "unit": "%"}, {"measurement": "Percent inhibition of AR mRNA", "setting": "AR mRNA [5]; 0.5 μM", "result": 21, "unit": "%"}, {"measurement": "Percent inhibition of AR mRNA", "setting": "AR mRNA [5]; 10 μM", "result": 70, "unit": "%"}]}
